Measured values as given in PubChem BioAssay AID330 (DTP/NCI, 2004).
Values joined by “and” are separate entries in the source; they are usually repeats but may differ in a detail not shown here. Equal values may be shown once. Toxic doses and inconclusive results are not listed.

Test system: P388 leukemia ip, CD2F1 mice, survival T/C
Test: NCI In Vivo Anticancer Drug Screen. Data for tumor model P388 Leukemia (intraperitoneal) in CD2F1 (CDF1) mice
Settings: endpoint: median survival time, higher = longer survival
In short: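 Mice carrying the transplanted tumor received test compound or vehicle. Survival was recorded in each group, and the value is the treated-group measurement divided by that of the vehicle-treated control group.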

[1] = dose: 25.0 mg/kg/injection, schedule: Q01DX009 (ip), vehicle: saline with Tween-80
[2] = dose: 50.0 mg/kg/injection, schedule: Q01DX009 (ip), vehicle: saline with Tween-80
[3] = dose: 100.0 mg/kg/injection, schedule: Q01DX009 (ip), vehicle: saline with Tween-80
[4] = dose: 200.0 mg/kg/injection, schedule: Q01DX009 (ip), vehicle: saline with Tween-80
[5] = dose: 60.0 mg/kg/injection, schedule: Q01DX005 (ip), vehicle: saline with Tween-80
[6] = dose: 120.0 mg/kg/injection, schedule: Q01DX005 (ip), vehicle: saline with Tween-80
[7] = dose: 240.0 mg/kg/injection, schedule: Q01DX005 (ip), vehicle: saline with Tween-80
[8] = dose: 60.0 mg/kg/injection, schedule: Q01DX005 (ip), vehicle: Klucel (hydroxypropylcellulose) (HPC)
[9] = dose: 120.0 mg/kg/injection, schedule: Q01DX005 (ip), vehicle: Klucel (hydroxypropylcellulose) (HPC)
[10] = dose: 240.0 mg/kg/injection, schedule: Q01DX005 (ip), vehicle: Klucel (hydroxypropylcellulose) (HPC)
[11] = dose: 100.0 mg/kg/injection, schedule: Q01DX009 (ip), vehicle: saline
[12] = dose: 200.0 mg/kg/injection, schedule: Q01DX009 (ip), vehicle: saline
[13] = dose: 50.0 mg/kg/injection, schedule: Q01DX005 (ip), vehicle: saline with Tween-80
[14] = dose: 100.0 mg/kg/injection, schedule: Q01DX005 (ip), vehicle: saline with Tween-80
[15] = dose: 200.0 mg/kg/injection, schedule: Q01DX005 (ip), vehicle: saline with Tween-80
[16] = dose: 12.5 mg/kg/injection, schedule: Q01DX005 (ip), vehicle: saline with Tween-80
[17] = dose: 25.0 mg/kg/injection, schedule: Q01DX005 (ip), vehicle: saline with Tween-80
[18] = dose: 25.0 mg/kg/injection, schedule: Q01DX009 (ip), vehicle: saline
[19] = dose: 50.0 mg/kg/injection, schedule: Q01DX009 (ip), vehicle: saline
[20] = dose: 50.0 mg/kg/injection, schedule: Q01DX005 (ip), vehicle: Klucel (hydroxypropylcellulose) (HPC)
[21] = dose: 100.0 mg/kg/injection, schedule: Q01DX005 (ip), vehicle: Klucel (hydroxypropylcellulose) (HPC)
[22] = dose: 200.0 mg/kg/injection, schedule: Q01DX005 (ip), vehicle: Klucel (hydroxypropylcellulose) (HPC)
[23] = dose: 100.0 mg/kg/injection, schedule: Q01DX009 (ip), vehicle: Klucel (hydroxypropylcellulose) (HPC)
[24] = dose: 200.0 mg/kg/injection, schedule: Q01DX009 (ip), vehicle: Klucel (hydroxypropylcellulose) (HPC)

For `CC1=Nc2cc3ccccc3cc2N(C)/C1=C/C1=C(Cl)C(=O)c2ccccc2C1=O`, the T/C (dose: 12.5 mg/kg/injection, schedule: Q01DX009 (ip), vehicle: saline with Tween-80) was 96 % of control, the T/C [1] was 100 % of control and the T/C [2] was 92 % of control and 97 % of control. For the same compound, the T/C [3] was 106 % of control and the T/C [4] was 89 % of control.

In the case of `COc1cc2cc3c(-c4ccccc4)noc3nc2cc1OC`, the T/C [5] is reported as 106 % of control, the T/C [6] is reported as 93 % of control and the T/C [7] is reported as 90 % of control.

`O=C1C(Cl)=C(Nc2cccc3cc4ccccc4nc23)C(=O)c2ccccc21` was tested, and the T/C (dose: 5.0 mg/kg/injection, schedule: Q01DX009 (ip), vehicle: saline) was 104 % of control and 112 % of control, the T/C (dose: 10.0 mg/kg/injection, schedule: Q01DX009 (ip), vehicle: saline) was 113 % of control and 114 % of control and the T/C (dose: 20.0 mg/kg/injection, schedule: Q01DX009 (ip), vehicle: saline) was 104 % of control.

For `CCOC(=O)c1csc(/C=C/c2cc(OC)c(OC)c(OC)c2)n1`, the T/C [5] was 105 % of control, the T/C [6] was 100 % of control and the T/C [7] was 92 % of control.

In the case of `Cc1cccc(C(=O)C(CN(C)C)CN(C)C)c1`, the T/C (dose: 12.5 mg/kg/injection, schedule: Q01DX005 (ip), vehicle: saline) is reported as 112 % of control and the T/C (dose: 25.0 mg/kg/injection, schedule: Q01DX005 (ip), vehicle: saline) is reported as 114 % of control.

For `CCOC(=O)c1ccc(N(CC(O)CN=[N+]=[N-])S(=O)(=O)c2ccc(C)cc2)cc1` (stereo not given), the T/C [5] was 112 % of control, the T/C [6] was 102 % of control and the T/C [7] was 96 % of control.

For `Brc1ccc2c(ccc3c2nnc2ncnn23)c1`, the T/C [8] was 102 % of control, the T/C [9] was 93 % of control and the T/C [10] was 86 % of control.

With `O=C(Nc1ccc(Cl)cc1)Nc1nnc2nc(C(C(=O)c3ccc(F)cc3)c3nc4nnc(NC(=O)Nc5ccc(Cl)cc5)n4[nH]c3=O)c(=O)[nH]n12` the T/C [5] was 103 % of control, the T/C [6] was 93 % of control and the T/C [7] was 86 % of control.

For `NC(CSCNc1ncnc2c1ncn2C1OC(CO)C(O)C1O)C(=O)O` (stereo not given), the T/C (dose: 100.0 mg/kg/injection, schedule: Q04DX002 (ip), vehicle: saline with Tween-80) was 105 % of control, the T/C (dose: 200.0 mg/kg/injection, schedule: Q04DX002 (ip), vehicle: saline with Tween-80) was 105 % of control and the T/C (dose: 400.0 mg/kg/injection, schedule: Q04DX002 (ip), vehicle: saline with Tween-80) was 102 % of control.

For `CC([Se])=Nc1ccc(Br)cc1`, the T/C (dose: 12.5 mg/kg/injection, schedule: Q04DX003 (ip), vehicle: Klucel (hydroxypropylcellulose) (HPC)) was 100 % of control and the T/C (dose: 25.0 mg/kg/injection, schedule: Q04DX003 (ip), vehicle: Klucel (hydroxypropylcellulose) (HPC)) was 100 % of control.

In the case of `CCOC(=O)c1ccc(N(CC(O)CN)S(=O)(=O)c2ccc(C)cc2)cc1` (stereo not given), the T/C (dose: 15.0 mg/kg/injection, schedule: Q01DX005 (ip), vehicle: saline with Tween-80) is reported as 102 % of control, the T/C (dose: 30.0 mg/kg/injection, schedule: Q01DX005 (ip), vehicle: saline with Tween-80) is reported as 101 % of control and the T/C [5] is reported as 101 % of control and 92 % of control.

With `Nc1cccc(=O)[nH]1` the T/C [11] was 95 % of control, the T/C [12] was 109 % of control and the T/C (dose: 400.0 mg/kg/injection, schedule: Q01DX009 (ip), vehicle: saline) was 113 % of control and 123 % of control.

For `CC1CC(C)(C)OC(C2CC=CCC2C)O1` (stereo not given), the T/C [13] was 97 % of control, the T/C [14] was 100 % of control and the T/C [15] was 109 % of control.

`Cn1c2ccccc2c2nnc(-n3nc(-c4ccc(Br)cc4)cc3N)nc21` was tested, and the T/C [16] was 98 % of control, the T/C [17] was 87 % of control and the T/C [14] was 93 % of control. For the same compound, the T/C [15] was 95 % of control.

In the case of `C1=CCC23COCC2(C1)CSC3` (stereo not given), the T/C (dose: 12.5 mg/kg/injection, schedule: Q01DX009 (ip), vehicle: saline) is reported as 96 % of control, the T/C [18] is reported as 92 % of control and the T/C [19] is reported as 99 % of control.

For `COc1ccc(C(C2C(=O)CC(C)(C)CC2=O)C2C(=O)CC(C)(C)CC2=O)cc1`, the T/C [20] was 104 % of control, the T/C [21] was 101 % of control and the T/C [22] was 106 % of control.

With `O=C(CS(=O)(=O)c1ccccc1)c1ccccc1` the T/C [23] was 101 % of control, the T/C [24] was 101 % of control and the T/C (dose: 400.0 mg/kg/injection, schedule: Q01DX009 (ip), vehicle: Klucel (hydroxypropylcellulose) (HPC)) was 105 % of control.

In the case of `COC(=O)C[C@](O)(CCC(C)(C)O)C(=O)O[C@@H]1C(OC)=C[C@]23CCCN2CCc2cc4c(cc2[C@H]13)OCO4`, the T/C (dose: 0.5 mg/kg/injection, schedule: Q01DX009 (ip), vehicle: saline) is reported as 177 % of control and the T/C (dose: 1.0 mg/kg/injection, schedule: Q01DX009 (ip), vehicle: saline) is reported as 231 % of control.

For `C=C1C(=O)OC2C[C@@]3(C)CC(O)C[C@H](C)C3=CC12` (stereo not given in full), the T/C (dose: 10.0 mg/kg/injection, schedule: Q01DX009 (ip), vehicle: distilled water + Tween-80 + alcohol) was 103 % of control, the T/C (dose: 20.0 mg/kg/injection, schedule: Q01DX009 (ip), vehicle: distilled water + Tween-80 + alcohol) was 111 % of control and the T/C (dose: 37.5 mg/kg/injection, schedule: Q01DX009 (ip), vehicle: distilled water + Tween-80 + alcohol) was 120 % of control. The T/C (dose: 40.0 mg/kg/injection, schedule: Q01DX009 (ip), vehicle: distilled water + Tween-80 + alcohol) was 117 % of control and the T/C (dose: 75.0 mg/kg/injection, schedule: Q01DX009 (ip), vehicle: distilled water + Tween-80 + alcohol) was 123 % of control.

`O=C1C=CC(=O)N1C1CCCCC1` was tested, and the T/C (dose: 6.25 mg/kg/injection, schedule: Q01DX009 (ip), vehicle: Klucel (hydroxypropylcellulose) (HPC)) was 97 % of control, the T/C (dose: 12.5 mg/kg/injection, schedule: Q01DX009 (ip), vehicle: Klucel (hydroxypropylcellulose) (HPC)) was 100 % of control and the T/C (dose: 25.0 mg/kg/injection, schedule: Q01DX009 (ip), vehicle: Klucel (hydroxypropylcellulose) (HPC)) was 97 % of control.

For `Nc1nc(Br)c2ncn(C3OC(CO)C(O)C3O)c2n1` (stereo not given), the T/C [13] was 101 % of control, the T/C [14] was 101 % of control and the T/C [15] was 94 % of control.

In the case of `O=C(NN(c1ccccc1)c1ccccc1)c1ccccc1[N+](=O)[O-]`, the T/C [2] is reported as 93 % of control, the T/C [3] is reported as 104 % of control and the T/C [4] is reported as 93 % of control.

In the case of `CCOC(=O)/C(C=NCC(C)(CN=C/C(C(=O)OCC)=C(/C)O)CN=C/C(C(=O)OCC)=C(/C)O)=C(\C)O` (stereo not given), the T/C (dose: 50.0 mg/kg/injection, schedule: Q01DX009 (ip), vehicle: Klucel (hydroxypropylcellulose) (HPC)) is reported as 93 % of control, the T/C [23] is reported as 90 % of control and the T/C [24] is reported as 87 % of control.

In the case of `CCCCOC(=O)/C=C/C(=O)N1CC(C)N(C(=O)/C=C/C(=O)OCCCC)CC1C` (stereo not given), the T/C [20] is reported as 105 % of control, the T/C [21] is reported as 100 % of control and the T/C [22] is reported as 100 % of control.

`Cc1cc(C)n(-c2cc(N3CCN(C)CC3)ncn2)n1` was tested, and the T/C [19] was 98 % of control, the T/C [11] was 98 % of control and the T/C [12] was 98 % of control.

With `CC(C)(C)OC(=O)NC(CCC(=O)O)(Cc1ccccc1)C(=O)NC(CCC(=O)O)(Cc1ccccc1)C(=O)OCc1ccccc1` (stereo not given) the T/C (dose: 6.25 mg/kg/injection, schedule: Q01DX005 (ip), vehicle: saline with Tween-80) was 98 % of control, the T/C [16] was 105 % of control and the T/C [17] was 88 % of control.

With `CC1(C)C/C(=C2\COC(=O)C2=O)NN1c1ccccc1` the T/C [2] was 106 % of control, the T/C [3] was 99 % of control and the T/C [4] was 105 % of control.

In the case of `Cc1ccc(C(=Nc2ccccc2Cl)N(O)c2ccccc2)cc1`, the T/C [20] is reported as 107 % of control, the T/C [21] is reported as 102 % of control and the T/C [22] is reported as 95 % of control.

In the case of `O=C(Nc1ccc(Cl)cc1)Oc1ccc(Cl)cc1C(=O)c1ccccc1`, the T/C [5] is reported as 111 % of control, the T/C [6] is reported as 110 % of control and the T/C [7] is reported as 112 % of control.

`CCOC(=O)C1CSC(c2c(CO)cnc(C)c2O)N1` (stereo not given) was tested, and the T/C [8] was 100 % of control, the T/C [9] was 99 % of control and the T/C [10] was 99 % of control.

With `CCCC1OCC2OC(Nc3ccccc3)C(O)C(O)C2O1` (stereo not given) the T/C [13] was 103 % of control, the T/C [14] was 98 % of control and the T/C [15] was 103 % of control.

`CCOC(=O)c1ccc2c(c1)C(C)(SC)C(=O)N2` (stereo not given) was tested, and the T/C [1] was 96 % of control, the T/C [2] was 100 % of control and the T/C [3] was 93 % of control.

For `C=C(c1ccc(OC)cc1)c1ccc(OC)cc1`, the T/C [2] was 103 % of control, the T/C [3] was 105 % of control and the T/C [4] was 102 % of control.

With `CCOC(=O)CN(C=O)C(C)c1ccccc1` (stereo not given) the T/C [18] was 114 % of control, the T/C [19] was 99 % of control and the T/C [11] was 98 % of control. For the same compound, the T/C [12] was 99 % of control.
